Where a SMILES comes first, the peptide text is derived from it. Bridges are numbered along the chain shown (N, C = ends). [ ]: non-standard residue; d: D form. The star is where a group is joined. hPhe(3-Cl-4-CF3) = N[C@@H](CCc1ccc(C(F)(F)F)c(Cl)c1)C(=O)O; NPrPhe(4-CF3) = CCCN[C@@H](Cc1ccc(C(F)(F)F)cc1)C(=O)O; NMeGly(cPent) = CN[C@H](C(=O)O)C1CCCC1; Pro(4,4-F2) = O=C(O)[C@@H]1CC(F)(F)CN1; NMeGly(cBu) = CN[C@H](C(=O)O)C1CCC1; Hyp = O=C(O)[C@@H]1C[C@@H](O)CN1; Gly(N-propargyl) = C#CCNCC(=O)O; NMeD = CN[C@@H](CC(=O)O)C(=O)O; NMeL = CN[C@@H](CC(C)C)C(=O)O; Morpholide = C1CN(*)CCO1; Ac5c = NC1(C(=O)O)CCCC1; Sar = CNCC(=O)O
Columns and labels:
HRAS wild-type protein = HRAS wild-type protein (Homo sapiens, UniProt P01112); test: Binding to HRAS by surface plasmon resonance (SPR), KD and KD ratio to KRAS
HRAS wild-type protein, sequence (P01112 whole entry): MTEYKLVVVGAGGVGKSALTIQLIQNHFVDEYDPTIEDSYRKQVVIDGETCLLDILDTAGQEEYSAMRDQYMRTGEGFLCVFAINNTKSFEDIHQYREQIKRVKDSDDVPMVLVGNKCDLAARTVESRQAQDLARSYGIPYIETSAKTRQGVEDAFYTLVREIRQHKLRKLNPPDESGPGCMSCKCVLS
How it was run: (§1)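 GDP-bound biotin-Avi RAS captured at ~100–300 RU, 30°C, pH 7.4 HBS containing 10 µM GDP, 10 mM MgCl2, 1 mM DTT, 0.01% Tween 20 and 4% DMSO. KD by 1:1 fitting.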

[1] = tested on: human lung cancer strain NCI-H441; assay type: cell-based
How it was run: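 Readout: […] after the ATP-based reagent. Compound: serial dilutions in dimethyl sulfoxide.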

[2] = target: GDP-bound NRAS wild-type protein (Homo sapiens, UniProt P01111); test: Binding to NRAS by surface plasmon resonance (SPR), KD and KD ratio to KRAS
GDP-bound NRAS wild-type protein, sequence (P01111 whole entry): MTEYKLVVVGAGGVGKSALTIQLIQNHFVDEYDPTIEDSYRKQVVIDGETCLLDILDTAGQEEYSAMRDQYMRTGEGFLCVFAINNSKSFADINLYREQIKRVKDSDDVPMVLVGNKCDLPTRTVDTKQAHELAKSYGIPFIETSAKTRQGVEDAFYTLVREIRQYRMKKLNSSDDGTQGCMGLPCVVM
How it was run: as §1

[3] = ratio of the KD value with respect to HRAS wild-type protein to the KD value with respect to KRAS
[4] = ratio of the KD value with respect to GDP-bound NRAS wild-type protein to the KD value with respect to KRAS
[5] = ratio of KD for HRAS wild-type protein to KD for KRAS
[6] = ratio of KD for GDP-bound NRAS wild-type protein to KD for KRAS
[7] = ratio of KD value for HRAS wild-type protein to KD value for KRAS (SPR)
[8] = ratio of KD value for GDP-bound NRAS wild-type protein to KD value for KRAS (SPR)

IC50 [1] | Compound | HRAS /KRAS (HRAS wild-type protein; [3]) | NRAS /KRAS [2, 4] | HRAS /KRAS (HRAS wild-type protein; [5]) | NRAS /KRAS [2, 6] | HRAS /KRAS (HRAS wild-type protein; [7]) | NRAS /KRAS [2, 8]
11.1 nM | C#CCN1CC(=O)N(C)CC(=O)N(CCC)[C@@H](Cc2ccc(C(F)(F)F)cc2)C(=O)N(C)CC(=O)N[C@@H](CCc2ccc(C(F)(F)F)c(Cl)c2)C(=O)N2CCC[C@H]2C(=O)NC2(CCCC2)C(=O)N(C)[C@@H](C2CCCC2)C(=O)N(C)[C@H](C(=O)N2CCOCC2)CC(=O)N(C)[C@@H](CC(C)C)C(=O)N[C@@H]([C@@H](C)CC)C1=O [PP0750] ([NMeL]I[Gly(N-propargyl)][Sar][NPrPhe(4-CF3)][Sar][hPhe(3-Cl-4-CF3)]P[Ac5c][NMeGly(cPent)][NMeD]-Morpholide; lactam N-11) | C (A compound having a KD ratio of 0.1 or more and less than 3 is denoted as C) | B (a compound having 3 or more and less than 10 is denoted as B) |  |  |  | 
96.7 nM | CCO[C@@H]1C[C@H]2C(=O)NC3(CCC3)C(=O)N(C)[C@@H](C3CCCC3)C(=O)N(C)[C@H](C(=O)N(C)C)CC(=O)N(C)[C@@H](CC)C(=O)N[C@@H]([C@@H](C)CC)C(=O)N[C@@H](C)C(=O)N(C)[C@H]3C/C=C\CCN(C3=O)[C@@H](Cc3ccc(C(F)(F)F)cc3)C(=O)N(C)CC(=O)N[C@@H](CCc3cc(F)c(C(F)(F)F)c(F)c3)C(=O)N2C1 [PP1065] |  |  | B (a compound having 3 or more and less than 10 is denoted as B) | A (a compound having 10 or more and less than 20 is denoted as A) |  | 
923 nM | CCCN1C(=O)CN(C)C(=O)CN(C)C(=O)[C@H]([C@@H](C)CC)NC(=O)[C@@H]2COCCCC[C@@](C)(NC(=O)[C@@H]3C[C@@H](OCC)CN3C(=O)[C@H](CCc3cc(F)c(C(F)(F)F)c(F)c3)NC(=O)CN(C)C(=O)[C@@H]1Cc1ccc(C(F)(F)F)cc1)C(=O)N(C)[C@@H](C1CCCC1)C(=O)N(C)[C@H](C(=O)N1CCOCC1)CC(=O)N2C [PP0899] |  |  | B (a compound having 3 or more and less than 10 is denoted as B) | A (a compound having 10 or more and less than 20 is denoted as A) |  | 
10.3 nM | CC[C@H](C)[C@@H]1NC(=O)[C@H](CC)N(C)C(=O)C[C@@H](C(=O)N(C)C)N(C)C(=O)[C@H](C2CCCC2)N(C)C(=O)C2(CCC2)NC(=O)[C@@H]2CCCCN2C(=O)[C@H](CCc2cc(F)c(C(F)(F)F)c(F)c2)NC(=O)CN(C)C(=O)[C@H](Cc2ccc(C(F)(F)F)cc2)N2CCCC[C@@H](C2=O)N(C)C(=O)CN(C)C1=O [PP0658] | B (a compound having 3 or more and less than 10 is denoted as B) | C (A compound having a KD ratio of 0.1 or more and less than 3 is denoted as C) |  |  |  | 
1.9 nM | CCCN1C(=O)CN(C)C(=O)CN(C)C(=O)[C@H]([C@@H](C)CC)NC(=O)[C@H](CC(C)C)N(C)C(=O)C[C@@H](C(=O)N(C)C)N(C)C(=O)[C@H](C2CCCC2)N(C)C(=O)C2(CCCC2)NC(=O)[C@@H]2C[C@@H](OCC)CN2C(=O)[C@H](CCc2ccc(C(F)(F)F)c(Cl)c2)NC(=O)CN(C)C(=O)[C@@H]1Cc1ccc(C(F)(F)F)cc1 [PP0415] ([NMeL]I[Sar][Sar][NPrPhe(4-CF3)][Sar][hPhe(3-Cl-4-CF3)][Hyp](Et)[Ac5c][NMeGly(cPent)][NMeD]-NMe2; lactam N-11) | B (a compound having 3 or more and less than 10 is denoted as B) | B (a compound having 3 or more and less than 10 is denoted as B) |  |  |  | 
6.3 nM | CCO[C@@H]1C[C@H]2C(=O)N(C)C3(CC(C)(C)C3)C(=O)N(C)[C@@H](C3CCCC3)C(=O)N(C)[C@H](C(=O)N(C)C)CC(=O)N(C)[C@H]3CCCC/C=C/c4ccc(cc4)C[C@@H](C(=O)N(C)CC(=O)N[C@@H](CCc4ccc(Cl)c(Cl)c4)C(=O)N2C1)N1CC/C=C\C[C@@H](C1=O)N(C)C(=O)CN(C)C(=O)[C@H]([C@@H](C)CC)NC3=O [PP3062] |  |  | A (a compound having 10 or more and less than 20 is denoted as A) | A (a compound having 10 or more and less than 20 is denoted as A) |  | 
1.8 nM | CCC[C@H]1C(=O)N[C@@H]([C@@H](C)CC)C(=O)N(C)CC(=O)N(C)[C@H]2C/C=C\CCN(C2=O)[C@@H](Cc2ccc(C(F)(F)F)cc2)C(=O)N(C)CC(=O)N[C@@H](CCc2cc(F)c(C(F)(F)F)c(F)c2)C(=O)N2C[C@H](OCC)C[C@H]2C(=O)NC2(CC(C)(C)C2)C(=O)N(C)[C@@H](C2CCCC2)C(=O)N(C)[C@H](C(=O)N(C)C)CC(=O)N1C [PP1645] |  |  |  |  | A (a compound having 10 or more and less than 20 is denoted as A) | A (a compound having 10 or more and less than 20 is denoted as A)
98.7 nM | CC[C@H](C)[C@@H]1NC(=O)[C@H](CC(C)C)N(C)C(=O)C[C@@H](C(=O)N(C)C)N(C)C(=O)[C@H](C2CCCC2)N(C)C(=O)C2(CC(C)(C)C2)NC(=O)CN(C)C(=O)[C@H](CCc2cc(F)c(C(F)(F)F)c(F)c2)NC(=O)CN(C)C(=O)[C@H](Cc2ccc(C(F)(F)F)cc2)N2CC/C=C\C[C@@H](C2=O)N(C)C(=O)CN(C)C1=O [PP1776] |  |  |  |  | A (a compound having 10 or more and less than 20 is denoted as A) | A (a compound having 10 or more and less than 20 is denoted as A)
44.9 nM | CCC[C@H]1C(=O)N[C@@H]([C@@H](C)CC)C(=O)N2CCC[C@H]2C(=O)N(C)[C@H]2C/C=C\CCN(C2=O)[C@@H](CC2CCCCC2)C(=O)N(C)CC(=O)N[C@@H](CCc2ccc(C(F)(F)F)c(OC)c2)C(=O)N2C[C@H](OCC)C[C@H]2C(=O)N(C)C2(CCC2)C(=O)N(C)[C@@H](C2CCCC2)C(=O)N(C)[C@H](C(=O)N(C)C)CC(=O)N1C [PP2344] | A (a compound having 10 or more and less than 20 is denoted as A) | A (a compound having 10 or more and less than 20 is denoted as A) |  |  |  | 
5.8 nM | CCO[C@@H]1C[C@H]2C(=O)NC3(CC(C)(C)C3)C(=O)N(C)[C@@H](C3CCCC3)C(=O)N(C)[C@H](C(=O)N(C)C)CC(=O)N(C)[C@@H](CC3CCC3)C(=O)N[C@@H]([C@@H](C)CC)C(=O)N(C)CC(=O)N(C)[C@H]3C/C=C\CCN(C3=O)[C@@H](Cc3ccc(C(F)(F)F)cc3)C(=O)N(C)CC(=O)N[C@@H](CCc3ccc(C(F)(F)F)c(Cl)c3)C(=O)N2C1 [PP1752] |  |  |  |  | A (a compound having 10 or more and less than 20 is denoted as A) | A (a compound having 10 or more and less than 20 is denoted as A)
4.1 nM | CC[C@H](C)[C@@H]1NC(=O)[C@H](CC(C)C)N(C)C(=O)C[C@@H](C(=O)N(C)CC)N(C)C(=O)[C@H](C2CCCC2)N(C)C(=O)C2(CC(C)(C)C2)NC(=O)[C@@H]2C[C@@H](F)CN2C(=O)[C@H](CCc2cc(F)c(C(F)(F)F)c(F)c2)NC(=O)CN(C)C(=O)[C@H](Cc2ccc(C(F)(F)F)cc2)N2CC/C=C\C[C@@H](C2=O)N(C)C(=O)CN(C)C1=O [PP1694] |  |  |  |  | A (a compound having 10 or more and less than 20 is denoted as A) | A (a compound having 10 or more and less than 20 is denoted as A)
3.8 nM | CCO[C@@H]1C[C@H]2C(=O)NC3(CC(C)(C)C3)C(=O)N(C)[C@@H](C3CCCC3)C(=O)N(C)[C@H](C(=O)N(C)C)CC(=O)N(C)[C@@H](CC(F)(F)F)C(=O)N[C@@H]([C@@H](C)CC)C(=O)N(C)CC(=O)N(C)[C@H]3C/C=C\CCN(C3=O)[C@@H](Cc3ccc(C(F)(F)F)cc3)C(=O)N(C)CC(=O)N[C@@H](CCc3ccc(C(F)(F)F)c(Cl)c3)C(=O)N2C1 [PP2833] |  |  | A (a compound having 10 or more and less than 20 is denoted as A) | A (a compound having 10 or more and less than 20 is denoted as A) |  | 
4 nM | CCC[C@H]1C(=O)N[C@@H]([C@@H](C)CC)C(=O)N(C)CC(=O)N(C)[C@H]2C/C=C\CCN(C2=O)[C@@H](Cc2ccc(C(F)(F)F)cc2)C(=O)N(C)CC(=O)N[C@@H](CCc2cc(F)c(C(F)(F)F)c(F)c2)C(=O)N2C[C@H](OCC)C[C@H]2C(=O)NC2(CC(C)(C)C2)C(=O)N(C)[C@@H](C(CC)CC)C(=O)N(C)[C@H](C(=O)N(C)C)CC(=O)N1C [PP2125] | A (a compound having 10 or more and less than 20 is denoted as A) | AA (a compound having 20 or more is denoted as AA) |  |  |  | 
2.5 nM | CCCN1C(=O)CN(C)C(=O)CN(C)C(=O)[C@H]([C@@H](C)CC)NC(=O)[C@H](C2CCC2)N(C)C(=O)C[C@@H](C(=O)N2CCOCC2)N(C)C(=O)[C@H](C2CCCC2)N(C)C(=O)C2(CCCC2)NC(=O)[C@@H]2CC(F)(F)CN2C(=O)[C@H](CCc2ccc(C(F)(F)F)c(Cl)c2)NC(=O)CN(C)C(=O)[C@@H]1Cc1ccc(C(F)(F)F)cc1 [PP0200] ([NMeGly(cBu)]I[Sar][Sar][NPrPhe(4-CF3)][Sar][hPhe(3-Cl-4-CF3)][Pro(4,4-F2)][Ac5c][NMeGly(cPent)][NMeD]-Morpholide; lactam N-11) |  |  | C (A compound having a KD ratio of 0.1 or more and less than 3 is denoted as C) | C (A compound having a KD ratio of 0.1 or more and less than 3 is denoted as C) |  | 

Compound | IC50 [1] | HRAS /KRAS (HRAS wild-type protein; [3]) | NRAS /KRAS [2, 4] | HRAS /KRAS (HRAS wild-type protein; [5]) | NRAS /KRAS [2, 6] | HRAS /KRAS (HRAS wild-type protein; [7]) | NRAS /KRAS [2, 8]
CCC[C@H]1C(=O)N[C@@H]([C@@H](C)CC)C(=O)N(C2CC2)CC(=O)N(C)[C@H]2C/C=C\CCN(C2=O)[C@@H](Cc2ccc(C)cc2)C(=O)N(C)CC(=O)N[C@@H](CCc2ccc(C3CC3)c(OC)c2)C(=O)N2C[C@H](OCC)C[C@H]2C(=O)NC2(CC(C)(C)C2)C(=O)N(C)[C@@H](C2CCCC2)C(=O)N(C)[C@H](C(=O)N(C)C)CC(=O)N1C [PP2883] | 76.2 nM |  |  | A (a compound having 10 or more and less than 20 is denoted as A) | A (a compound having 10 or more and less than 20 is denoted as A) |  | 

Source: patent publication EP4603105A1, “PHARMACEUTICAL COMPOSITION CONTAINING CYCLIC COMPOUND HAVING SELECTIVE KRAS INHIBITORY EFFECT AGAINST HRAS AND NRAS” (CHUGAI SEIYAKU KABUSHIKI KAISHA, priority 2022, dated 2024)
